Earlier results in EP3003384B1 (Lamda Laboratories S.A., priority 2014, dated 2015).
Structures can show the parent of a compound that is named as a salt.

Settings: at room temperature

## CNCC[C@@H](Oc1ccccc1C)c1ccccc1 [atomoxetine hydrochloride]
  soluble in water: 27.8 mg/mL
